The test system of one assay is P388. The experiment in a line: Cytotoxicity against mouse P388 cell. It is filed as functional, cell-based. The following applies: Mus musculus, P388.
Compound `COc1ccc(C[C@@H]2NC(=O)[C@H](C)NC(=O)[C@@H](C)NC(=O)[C@@H]3Cc4ccc(OC)c(c4)Oc4ccc(cc4)C[C@@H](C(=O)N3C)N(C)C(=O)[C@H](C)NC2=O)cc1` showed a half-maximal inhibitory concentration (IC50) of 0.12 µM.
The same measure, in the same setting: under `C/C=C/c1ccc(C[C@H]2C(=O)N[C@@H](C)C(=O)N(C)[C@H]3Cc4ccc(cc4)Oc4cc(ccc4OC)C[C@@H](C(=O)N[C@H](C)C(=O)N[C@@H](C)C(=O)N2C)N(C)C3=O)cc1` stands 0.00501 µM.
Same read-out and setting: the figure for `COc1ccc(C[C@H]2C(=O)N[C@@H](C)C(=O)N(C)[C@H]3Cc4ccc(cc4)Oc4cc(ccc4OC)C[C@@H](C(=O)N[C@H](C)C(=O)N[C@@H](CS)C(=O)N2C)N(C)C3=O)cc1` is 0.363 µM; for `C[C@@H]1NC(=O)[C@@H](C)NC(=O)[C@@H]2Cc3ccc(O)c(c3)Oc3ccc(cc3)C[C@@H](C(=O)N2C)N(C)C(=O)[C@H](C)NC(=O)[C@H](Cc2ccccc2)N(C)C1=O` it is 0.0427 µM.
With `CCC[C@@H]1NC(=O)[C@@H](C)NC(=O)[C@@H]2Cc3ccc(OC)c(c3)Oc3ccc(cc3)C[C@@H](C(=O)N2C)N(C)C(=O)[C@H](C)NC(=O)[C@H](Cc2ccc(OC)cc2)N(C)C1=O`, the IC50 was 0.0138 µM.
Same read-out and setting: the figure for `COc1ccc(C[C@H]2C(=O)N[C@@H](C)C(=O)N(C)[C@H]3Cc4ccc(cc4)Oc4cc(ccc4OC)C[C@@H](C(=O)N[C@H](C)C(=O)N[C@@H](CC=O)C(=O)N2C)N(C)C3=O)cc1` is 0.0339 µM; for `COc1ccc(C[C@H]2C(=O)N[C@@H](C)C(=O)N(C)[C@H]3Cc4ccc(c(O)c4)Oc4cc(ccc4O)C[C@@H](C(=O)N[C@H](C)C(=O)N[C@@H](C)C(=O)N2C)N(C)C3=O)cc1` it is 9.12 µM; for `COc1ccc(C[C@H]2C(=O)N[C@@H](C)C(=O)N(C)[C@H]3Cc4ccc(cc4)Oc4cc(ccc4OC)C[C@@H](C(=O)N[C@H](C)C(=O)N[C@@H](CO)C(=O)N2C)N(C)C3=O)cc1` it is 0.0141 µM.
On the same count and under the same terms, under `COc1ccc(C[C@H]2C(=O)N[C@@H](C)C(=O)N(C)[C@H]3Cc4ccc(cc4)Oc4cc(ccc4OC)C[C@@H](C(=O)N[C@H](C)C(=O)N[C@@H](CCCN=[N+]=[N-])C(=O)N2C)N(C)C3=O)cc1` stands 0.0355 µM; under `COc1ccc(C[C@H]2C(=O)N[C@@H](C)C(=O)N(C)[C@H]3Cc4ccc(cc4)Oc4cc(ccc4OC)C[C@@H](C(=O)N[C@H](C)C(=O)N[C@@H](CCCO)C(=O)N2C)N(C)C3=O)cc1`, 0.174 µM; under `CCCc1ccc(C[C@H]2C(=O)N[C@@H](C)C(=O)N(C)[C@H]3Cc4ccc(cc4)Oc4cc(ccc4OC)C[C@@H](C(=O)N[C@H](C)C(=O)N[C@@H](C)C(=O)N2C)N(C)C3=O)cc1`, 0.0257 µM.
Same read-out and setting: under `COc1ccc(C[C@H]2C(=O)N[C@@H](C)C(=O)N(C)[C@H]3Cc4ccc(cc4)Oc4cc(ccc4OC)C[C@@H](C(=O)N[C@H](C)C(=O)N[C@@H](CCO)C(=O)N2C)N(C)C3=O)cc1` stands 0.0603 µM; under `COc1ccc(C[C@H]2C(=O)N[C@@H](C)C(=O)N(C)[C@H]3Cc4ccc(cc4)Oc4cc(ccc4OC)C[C@@H](C(=O)N[C@H](C)C(=O)N[C@@H](CC(=O)O)C(=O)N2C)N(C)C3=O)cc1`, 1.2 µM; under `COC(=O)C[C@@H]1NC(=O)[C@@H](C)NC(=O)[C@@H]2Cc3ccc(OC)c(c3)Oc3ccc(cc3)C[C@@H](C(=O)N2C)N(C)C(=O)[C@H](C)NC(=S)[C@H](Cc2ccc(OC)cc2)N(C)C1=O`, 0.00479 µM.
In turn, `COc1ccc(C[C@H]2C(=O)N[C@@H](C)C(=O)N(C)[C@H]3Cc4ccc(cc4)Oc4cc(ccc4OC)C[C@@H](C(=S)N[C@H](C)C(=O)N[C@@H](C)C(=O)N2C)N(C)C3=O)cc1` showed an IC50 of 0.00331 µM.
The same measure, in the same setting: under `COc1ccc(C[C@H]2C(=S)N[C@@H](C)C(=O)N(C)[C@H]3Cc4ccc(cc4)Oc4cc(ccc4OC)C[C@@H](C(=O)N[C@H](C)C(=O)N[C@@H](C)C(=O)N2C)N(C)C3=O)cc1` stands 0.000741 µM.
Same read-out and setting: the figure for `C=CC[C@@H]1NC(=O)[C@@H](C)NC(=O)[C@@H]2Cc3ccc(OC)c(c3)Oc3ccc(cc3)C[C@@H](C(=O)N2C)N(C)C(=O)[C@H](C)NC(=O)[C@H](Cc2ccc(OC)cc2)N(C)C1=O` is 0.0389 µM; for `CCc1ccc(C[C@H]2C(=O)N[C@@H](C)C(=O)N(C)[C@H]3Cc4ccc(cc4)Oc4cc(ccc4OC)C[C@@H](C(=O)N[C@H](C)C(=O)N[C@@H](C)C(=O)N2C)N(C)C3=O)cc1` it is 0.00933 µM.
`COc1ccc(C[C@H]2C(=S)N[C@@H](C)C(=O)N(C)[C@H]3Cc4ccc(cc4)Oc4cc(ccc4OC)C[C@@H](C(=O)N[C@H](C)C(=O)N[C@@H](C)C(=S)N2C)N(C)C3=O)cc1` showed an IC50 of 0.00162 µM.
Same read-out and setting: under `COc1ccc(C[C@H]2C(=O)N[C@@H](C)C(=O)N(C)[C@H]3Cc4ccc(cc4)Oc4cc(ccc4OC)C[C@@H](C(=O)N[C@H](C)C(=O)NC4(SCCS4)C(=O)N2C)N(C)C3=O)cc1` stands 0.631 µM; under `COC(=O)CC[C@@H]1NC(=O)[C@@H](C)NC(=O)[C@@H]2Cc3ccc(OC)c(c3)Oc3ccc(cc3)C[C@@H](C(=O)N2C)N(C)C(=O)[C@H](C)NC(=O)[C@H](Cc2ccc(OC)cc2)N(C)C1=O`, 0.0589 µM.
Take `COc1ccc(C[C@H]2C(=S)N[C@@H](C)C(=O)N(C)[C@H]3Cc4ccc(cc4)Oc4cc(ccc4OC)C[C@@H](C(=S)N[C@H](C)C(=O)N[C@@H](C)C(=O)N2C)N(C)C3=O)cc1`: half-maximal inhibition (IC50) required 0.00214 µM.
Same read-out and setting: the figure for `COc1ccc(C[C@H]2C(=O)N[C@@H](C)C(=O)N(C)[C@H]3Cc4ccc(cc4)Oc4cc(ccc4OC)C[C@@H](C(=O)N[C@H](C)C(=O)N[C@@H](CCC(=O)O)C(=O)N2C)N(C)C3=O)cc1` is 0.219 µM; for `COc1ccc(C[C@H]2C(=O)N[C@@H](C)C(=O)N(C)[C@H]3Cc4ccc(cc4)Oc4cc(ccc4OC)C[C@@H](C(=O)N[C@H](C)C(=O)N[C@@H](C)C(=O)N2C)N(C)C3=O)cc1O` it is 0.214 µM; for `COc1ccc(C[C@H]2C(=O)N[C@@H](C)C(=O)N(C)[C@H]3Cc4ccc(cc4)Oc4cc(ccc4OC)C[C@@H](C(=O)N[C@H](C)C(=O)N4C(=O)CC[C@H]4C(=O)N2C)N(C)C3=O)cc1` it is 0.457 µM.
Regarding `COc1ccc(C[C@H]2C(=S)N[C@@H](C)C(=O)N(C)[C@H]3Cc4ccc(cc4)Oc4cc(ccc4O)C[C@@H](C(=O)N[C@H](C)C(=O)N[C@@H](C)C(=O)N2C)N(C)C3=O)cc1`, the IC50 is 0.00115 µM.
Still for that read-out and setting: the figure for `COc1ccc(C[C@H]2C(=O)N[C@@H](C)C(=O)N(C)[C@H]3Cc4ccc(cc4)Oc4cc(ccc4O)C[C@@H](C(=O)N[C@H](C)C(=O)N[C@@H](C)C(=O)N2C)N(C)C3=O)cc1` [DEOXYBOUVARDIN] is 0.00355 µM; for `COc1ccc2cc1Oc1ccc(cc1)C[C@H]1C(=O)N(C)[C@@H](C2)C(=O)N[C@H](C)C(=O)N[C@@H](C)C(=O)N(C)[C@@H](Cc2ccc(C)cc2)C(=O)N[C@@H](C)C(=O)N1C` it is 0.024 µM.
On the same count and under the same terms, the figure for `C[C@@H]1NC(=O)[C@@H](C)NC(=O)[C@@H]2Cc3cccc(c3)Oc3ccc(cc3)C[C@@H](C(=O)N2C)N(C)C(=O)[C@H](C)NC(=O)[C@H](Cc2ccccc2)N(C)C1=O` is 0.525 µM; for `COc1ccc(C[C@H]2C(=O)N[C@@H](C)C(=O)N(C)[C@H]3Cc4ccc(cc4)Oc4cc(ccc4OC)C[C@@H](C(=O)N[C@H](C)C(=O)N4CCCC[C@H]4C(=O)N2C)N(C)C3=O)cc1` it is 0.0977 µM.
On the same count and under the same terms, under `COc1ccc(C[C@H]2C(=O)N[C@@H](C)C(=O)N(C)[C@H]3Cc4ccc(cc4)Oc4cc(ccc4OC)C[C@@H](C(=O)N[C@H](C)C(=O)N[C@@H](CCCCO)C(=O)N2C)N(C)C3=O)cc1` stands 0.219 µM; under `COC(=O)C[C@@H]1NC(=O)[C@@H](C)NC(=O)[C@@H]2Cc3ccc(OC)c(c3)Oc3ccc(cc3)C[C@@H](C(=O)N2C)N(C)C(=O)[C@H](C)NC(=O)[C@H](Cc2ccc(OC)cc2)N(C)C1=O`, 0.0417 µM.
Compound `COc1ccc(C[C@H]2C(=O)N[C@@H](C)C(=O)N(C)[C@H]3Cc4ccc(c(O)c4)Oc4cc(ccc4OC)C[C@@H](C(=O)N[C@H](C)C(=O)N[C@@H](C)C(=O)N2C)N(C)C3=O)cc1O` gave an IC50 of 15.1 µM.
`COc1ccc(C[C@H]2C(=S)N[C@@H](C)C(=O)N(C)[C@H]3Cc4ccc(cc4)Oc4cc(ccc4OC)C[C@@H](C(=O)N[C@H](C)C(=S)N[C@@H](C)C(=O)N2C)N(C)C3=O)cc1` gave an IC50 of 0.0055 µM.
On the same count and under the same terms, the figure for `COc1ccc(C[C@H]2C(=O)N[C@@H](C)C(=O)N(C)[C@H]3Cc4ccc(cc4)Oc4cc(ccc4OC)C[C@@H](C(=O)N[C@H](C)C(=O)N[C@@H](CSC(C)=O)C(=O)N2C)N(C)C3=O)cc1` is 0.00977 µM; for `COc1ccc(C[C@H]2C(=O)N[C@@H](C)C(=O)N(C)[C@H]3Cc4ccc(cc4)Oc4cc(ccc4OC)C[C@@H](C(=O)N[C@H](C)C(=O)N[C@@H](CCSC)C(=O)N2C)N(C)C3=O)cc1` it is 0.0204 µM; for `COc1ccc(C[C@H]2C(=O)N[C@@H](C)C(=O)N(C)[C@H]3Cc4ccc(cc4)Oc4cc(ccc4OC)C[C@@H](C(=O)N[C@H](C)C(=O)N4CCC[C@H]4C(=O)N2C)N(C)C3=O)cc1` it is 0.1 µM.
The same measure, in the same setting: the figure for `C=Cc1ccc(C[C@H]2C(=O)N[C@@H](C)C(=O)N(C)[C@H]3Cc4ccc(cc4)Oc4cc(ccc4OC)C[C@@H](C(=O)N[C@H](C)C(=O)N[C@@H](C)C(=O)N2C)N(C)C3=O)cc1` is 0.017 µM.
Compound `C=C[C@@H]1NC(=O)[C@@H](C)NC(=O)[C@@H]2Cc3ccc(OC)c(c3)Oc3ccc(cc3)C[C@@H](C(=O)N2C)N(C)C(=O)[C@H](C)NC(=O)[C@H](Cc2ccc(OC)cc2)N(C)C1=O` had an IC50 of 0.0257 µM.
As to `COc1ccc2cc1Oc1ccc(cc1)C[C@H]1C(=O)N(C)[C@@H](C2)C(=O)N[C@H](C)C(=O)N[C@@H](C)C(=O)N(C)[C@@H](Cc2ccccc2)C(=O)N[C@@H](C)C(=O)N1C`, the IC50 is 0.295 µM.

The same assay, now with this note: p388.
Take `COc1ccc(C[C@H]2C(=O)N[C@@H](C)C(=O)N(C)[C@H]3Cc4ccc(c(O)c4)Oc4cc(ccc4OC)C[C@@H](C(=O)N[C@H](C)C(=O)N[C@@H](C)C(=O)N2C)N(C)C3=O)cc1` (stereo in doubt; 40): the pIC50 turned out to be 5.24.

As usually defined, the IC50 is the point on the concentration scale where inhibition reaches its midpoint. A lower IC50 goes with inhibition by little substance. One may read the pIC50 as −log10 of the IC50, conventionally taken in molar units.

Values taken from ChEMBL document CHEMBL1153577, “2D- and 3D-QSAR studies on 54 anti-tumor Rubiaceae-type cyclopeptides” (Eur J Med Chem, 2009).
